As a reminder, the pIC50 is the negative decadic logarithm of the IC50, by convention in mol/L. For orientation: pKi means the Ki on a negative log10 scale, so that one unit is a factor of ten. Usually pKd stands for the negative decadic logarithm of the Kd, by convention in mol/L.

In assay [1] the target is T1, Meprin β62–595 (MβΔC) (Homo sapiens, UniProt Q16820).
T1 construct: His-tag (N, cleaved yes); α-mating factor secretion signal (S. cerevisiae) (N, cleaved yes); made in house; host or cells: Pichia pastoris X33
T1 sequence (Q16820 62-595): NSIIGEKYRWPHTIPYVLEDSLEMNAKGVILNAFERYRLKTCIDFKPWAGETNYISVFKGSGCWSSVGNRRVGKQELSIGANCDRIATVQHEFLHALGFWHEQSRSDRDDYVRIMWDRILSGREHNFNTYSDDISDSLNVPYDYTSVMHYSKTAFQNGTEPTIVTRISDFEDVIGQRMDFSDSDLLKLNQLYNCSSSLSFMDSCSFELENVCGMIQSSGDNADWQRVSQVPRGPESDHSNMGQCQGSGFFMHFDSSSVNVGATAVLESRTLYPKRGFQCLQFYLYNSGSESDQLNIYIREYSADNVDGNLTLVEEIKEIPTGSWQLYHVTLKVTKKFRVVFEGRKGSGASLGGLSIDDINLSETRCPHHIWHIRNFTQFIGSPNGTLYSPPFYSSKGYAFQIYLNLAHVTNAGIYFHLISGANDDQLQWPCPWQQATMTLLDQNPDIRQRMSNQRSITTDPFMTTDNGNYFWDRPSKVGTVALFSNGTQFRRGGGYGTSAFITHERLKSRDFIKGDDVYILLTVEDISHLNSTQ
The assay can be described thus: Proteolytic stability of concentrated Meprin β62–595 (MβΔC) with inhibitor, SDS-PAGE. The settings on record: 15 °C; for stability of Meprin β62–595 (MβΔC) with inhibitor added: SDS-PAGE; for degradation of Meprin β62–595 (MβΔC) on addition of inhibitor: up to 15 days, molar ratio 1:1.3 (actinonin), 1:1.2 (MWT-S-270). On the procedure:
For reduction of potential heterogeneity, flexible glycosyl chains were removed by deglycosylation. The influence of different detergents and protein concentrations on the deglycosylation and stability of the enzyme has been investigated and analyzed by SDS-PAGE. […] To prevent degradation, the non-specific Meprin β inhibitor actinonin or the specific Meprin β inhibitor MWT-S-270 was added to the protein solution in a molar ratio of 1:1.3 and 1:1.2, respectively.
For the removal of surface-exposed glycosyl chains, a deglycosylation was performed prior to crystallization.
(MβΔC) before and after deglycosylation by EndoH under native conditions.
(1 picture or pasted object on this page, not shown here)

The target in assay [2] is T2, Meprin β (Homo sapiens, UniProt Q16820).
T2 construct: For the purified, truncated variant Meprin β^62–595 (MβΔC), despite reduced protein yield, identical specific activity was detected; His-tag (N, cleaved yes); made in house; host or cells: Pichia pastoris
T2 sequence (Q16820 62-595): T1 sequence (Q16820 62-595)
The assay can be described thus: Meprin β enzyme inhibition (cleavage of quenched fluorogenic peptide Abz-YVAEAPK(Dnp)G-OH). It is filed as biochemical. On the procedure:
The enzymatic activity of Meprin β was determined, essentially as described previously. The assay is based on the change of fluorescence intensity due to cleavage of the internally quenched peptide substrate Abz-YVAEAPK(Dnp)G-OH (λex 340 nm/λem 420 nm). For activity determination during expression and purification, the proenzyme was activated by trypsin. For activation, 100 µL of cleavage buffer (50 mM Tris/HCl, 10 mM CaCl2, pH 7.5), 50 µL Meprin β solution and 50 µL bovine trypsin 500 µg/mL (Sigma Aldrich) were mixed and incubated for 15 min at 30 °C. An aliquot of the reaction (50 µL) was mixed again with 150 µL assay buffer consisting of 40 mM Tris/HCl, pH 8.0, 0.05% Brij 30. The reaction was initiated by addition of 50 µL of substrate (final concentration 50 µM), which was dissolved in assay buffer.

Assay [3] concerns the target T1, Meprin β62–595 (MβΔC). The assay can be described thus: Isothermal titration calorimetry (ITC) of inhibitors to Meprin β62–595 (MβΔC). The following applies: for H (one-site fit) / K (association constant, one-site fit) / N (stoichiometry, one-site fit) / S (one-site fit): ITC fit; for pKd / ΔH (binding enthalpy) / −ΔS * T (binding entropy term): ITC, 30 °C. Set-up: H (one-site fit) / S (one-site fit): unit not given here. It counts as binding. On the procedure:
The binding affinity (KD), binding enthalpy (ΔH), binding entropy (ΔS) and stoichiometry (N) of different Meprin β inhibitors to Meprin β^62–595 (MβΔC) were determined by isothermal titration of the inhibitors to the enzyme at 30 °C using a VP-ITC microcalorimeter (MicroCal). Prior to the binding analysis, the purified Meprin β^62–595 (MβΔC) was dialyzed extensively against 40 mM Tris pH 8.0 (±150 mM NaCl). The inhibitors were diluted 1:50 from DMSO stock solutions into dialysis buffer and 2% (v/v) DMSO were added to the dialyzed enzyme solution immediately before starting the titration experiment. The instrument was operated according to the manufacturer’s instructions and the data analyzed using MicroCal ORIGIN software. The obtained binding heat was corrected by the dilution heat of the ligand, which was recorded by titration of the inhibitor (1:50 diluted) into the dialysis buffer containing 2% (v/v) DMSO. The corrected data were evaluated by a single-site binding model calculating N, KD, ΔH and ΔS.
1. MWT-S-270 (-NaCl) 2. MWT-S-270 (+ NaCl)
Figure S7: ITC binding curves for the titration of Meprin β62-595 (MβΔC) with different inhibitors. […]
(In general: ITC needs no label: the signal is the heat of the interaction.)

The subject of assay [4] is Meprin α. The settings on record: cited from earlier work.
Where [5] appears, read: 40 mM Tris pH 8.0 (no NaCl), read-out: Ki.

Each structure is given as a SMILES string. pIC50, pKd, pKi: −log10 of the molar value. Where two headings read alike, the source gives them in different places.

In the case of `CCCCC[C@H](CC(=O)NO)C(=O)N[C@H](C(=O)N1CCC[C@H]1CO)C(C)C` [actinonin, reference compound], in assay [1], the “stability of Meprin β62–595 (MβΔC) with inhibitor added” value is “at least 15 days” and the “degradation of Meprin β62–595 (MβΔC) on addition of inhibitor” value is on record as “prevented”.
`O=C(CN(Cc1ccccc1)Cc1cccc(C(=O)O)c1)NO` [3 (396)]: in assay [2] (40 mM Tris pH 8.0 (no NaCl)), the pIC50 was 5.89. Further, the pKi in assay [2] (setting [5]) is 5.86. In addition, in assay [3] (Figure S7, -NaCl), the “H (one-site fit)” value was -1138 ±32.08; the “K (association constant, one-site fit)” value is on record as 1.34E6 ±2.22E5; the “N (stoichiometry, one-site fit)” value is reported as 1.09 ±0.0225; the “S (one-site fit)” value came to 24.3. In addition, in assay [3] (40 mM Tris pH 8.0 (no NaCl)), the negative logarithm of the Kd (pKd) is 6.13, the “ΔH (binding enthalpy)” value is -1138 cal/mol and the “−ΔS * T (binding entropy term)” value was -7363 cal/mol.
In assay [2] (40 mM Tris pH 8.0 (no NaCl)), `O=C(CN(Cc1cccc(C(=O)O)c1)Cc1ccc2c(c1)OCO2)NO` [2 (416)] showed a negative-log IC50 (pIC50) of 6.55. Moreover, the pKi in assay [2] (setting [5]) is 6.72. In assay [3] (Figure S7, -NaCl), the “H (one-site fit)” value was -3966 ±57,47; the “K (association constant, one-site fit)” value is given as 4,21E6 ±6,18E5; the “N (stoichiometry, one-site fit)” value was 1,06 ±0,0110; the “S (one-site fit)” value is reported as 17,2. For the same compound, in assay [3] (40 mM Tris pH 8.0 (no NaCl)), the pKd is 6.63, the “ΔH (binding enthalpy)” value was -3966 cal/mol and the “−ΔS * T (binding entropy term)” value was -5212 cal/mol.
For the compound `O=C(CN(Cc1cccc(C(=O)O)c1)Cc1cccc(C(=O)O)c1)NO` [1 (270), 3-[[(3-Carboxyphenyl)methyl-[2-(hydroxyamino)-2-oxoethyl]amino]methyl]benzoic acid], in assay [2] (150 mM NaCl, 40 mM Tris pH 8.0), the pIC50 was 6.75. Besides, in assay [2] (150 mM NaCl, 40 mM Tris pH 8.0, read-out: Ki), the negative-log Ki (pKi) was 6.70. Moreover, in assay [2] (Ki, 40 mM Tris pH 8.0 (no NaCl)), the negative logarithm of the Ki (pKi) was 7.54. Besides, in assay [3] (Figure S7, + NaCl), the “H (one-site fit)” value was -4554 ±133,1; the “K (association constant, one-site fit)” value is 2,50E6 ±5,30E5; the “N (stoichiometry, one-site fit)” value is 1,13 ±0,0246; the “S (one-site fit)” value is listed as 14,2. In assay [3] (Figure S7, -NaCl), the “H (one-site fit)” value is -3884 ±41.29; the “K (association constant, one-site fit)” value came out at 6.31E7 ±1.05E7; the “N (stoichiometry, one-site fit)” value stood at 0.939 ±0.00648; the “S (one-site fit)” value is on record as 22.9. For the same compound, in assay [3] (40 mM Tris pH 8.0 (no NaCl)), the pKd is 7.80, the “ΔH (binding enthalpy)” value is -3884 cal/mol and the “−ΔS * T (binding entropy term)” value is -6939 cal/mol. Besides, in assay [3] (150 mM NaCl, 40 mM Tris pH 8.0), the negative logarithm of the Kd (pKd) is 6.40, the “ΔH (binding enthalpy)” value is -4554 cal/mol and the “−ΔS * T (binding entropy term)” value is -4303 cal/mol. In assay [1], the “stability of Meprin β62–595 (MβΔC) with inhibitor added” value was “at least 15 days” and the “degradation of Meprin β62–595 (MβΔC) on addition of inhibitor” value was “prevented”. For the same compound, the pIC50 in assay [4] (read-out: IC50 towards Meprin α) is 4.79. Also, the “stronger inhibition of Meprin β in comparison to Meprin α” value in assay [4] (selectivity Meprin β over Meprin α) is reported as “more than 100 fold”.

The record behind these values is PMC8197800, “Structure and Dynamics of Meprin β in Complex with a Hydroxamate-Based Inhibitor” (International Journal of Molecular Sciences, 2021).
